Measured values from ChEMBL document CHEMBL4680214, “Fluorinated derivatives of 2-phenyl-3-hydroxy-4(1H)-quinolinone as tubulin polymerization inhibitors” (Eur J Med Chem, 2020).
Calls of active or inactive are those of the source. The rule behind the calls is not given here.

Key:
CCRF-CEM [1] = experiment: Cytotoxicity against human CCRF-CEM cells incubated for 72 hrs by MTS assay; type: functional, cell-based
CCRF-CEM [2] = experiment: Cytotoxicity against human daunorubicine-resistant CCRF-CEM cells incubated for 72 hrs by MTS assay; type: functional, cell-based
K562 [3] = experiment: Cytotoxicity against human K562 cells incubated for 72 hrs by MTS assay; type: functional, cell-based; settings: K562, 72 h
K562 [4] = experiment: Cytotoxicity against human paclitaxel-resistant K562 cells incubated for 72 hrs by MTS assay; type: functional, cell-based; settings: K562, 72 h
HCT-116 [5] = experiment: Cytotoxicity against human HCT-116 cells incubated for 72 hrs by MTS assay; type: functional, cell-based; settings: HCT-116, 72 h
HCT-116 [6] = experiment: Cytotoxicity against p53-deficient human HCT-116 cells incubated for 72 hrs by MTS assay; type: functional, cell-based; settings: HCT-116, 72 h
A549 = experiment: Cytotoxicity against human A549 cells incubated for 72 hrs by MTS assay; type: functional, cell-based; settings: A549, 72 h
CCRF-CEM [7] = experiment: Cell cycle arrest in human CCRF-CEM cells assessed as accumulation at G0/G1 phase at IC50 measured after 24 hrs by propidium iodide staining based flow cytometry (reference value: 35.2%); type: functional
CCRF-CEM [8] = experiment: Cell cycle arrest in human CCRF-CEM cells assessed as accumulation at G0/G1 phase at 5 times IC50 measured after 24 hrs by propidium iodide staining based flow cytometry (reference value: 35.2%); type: functional
CCRF-CEM [9] = experiment: Cell cycle arrest in human CCRF-CEM cells assessed as accumulation at S phase at IC50 measured after 24 hrs by propidium iodide staining based flow cytometry (reference value: 42.2%); type: functional
CCRF-CEM [10] = experiment: Cell cycle arrest in human CCRF-CEM cells assessed as accumulation at S phase at 5 times IC50 measured after 24 hrs by propidium iodide staining based flow cytometry (reference value: 42.2%); type: functional
CCRF-CEM [11] = experiment: Cell cycle arrest in human CCRF-CEM cells assessed as accumulation at G2/M phase at IC50 measured after 24 hrs by propidium iodide staining based flow cytometry (reference value: 22.6%); type: functional
CCRF-CEM [12] = experiment: Cell cycle arrest in human CCRF-CEM cells assessed as phosphorylation of histone H3 at Ser10 at 5 times IC50 measured after 24 hrs by propidium iodide staining based flow cytometry (reference value: 2.0%); type: functional
CCRF-CEM [13] = experiment: Cell cycle arrest in human CCRF-CEM cells assessed as BrdU incorporation at IC50 measured after 24 hrs by propidium iodide/immunostaining based flow cytometry (reference value: 60.0%); type: functional
CCRF-CEM [14] = experiment: Cell cycle arrest in human CCRF-CEM cells assessed as BrdU incorporation at 5 times IC50 measured after 24 hrs by propidium iodide/immunostaining based flow cytometry (reference value: 60.0%); type: functional
CCRF-CEM [15] = experiment: Cell cycle arrest in human CCRF-CEM cells assessed as BrU incorporation at IC50 measured after 24 hrs by propidium iodide/immunostaining based flow cytometry (reference value: 52.2%); type: functional
CCRF-CEM [16] = experiment: Cell cycle arrest in human CCRF-CEM cells assessed as BrU incorporation at 5 times IC50 measured after 24 hrs by propidium iodide/immunostaining based flow cytometry (reference value: 52.2%); type: functional
HCT-116 [17] = experiment: Cell cycle arrest in human HCT-116 cells assessed as accumulation at sub-G1 phase at IC50 measured after 24 hrs by propidium iodide staining based flow cytometry (reference value: 1.6%); type: functional
HCT-116 [18] = experiment: Cell cycle arrest in human HCT-116 cells assessed as accumulation at sub-G1 phase at 5 times IC50 measured after 24 hrs by propidium iodide staining based flow cytometry (reference value: 1.6%); type: functional
HCT-116 [19] = experiment: Cell cycle arrest in human HCT-116 cells assessed as accumulation at G0/G1 phase at IC50 measured after 24 hrs by propidium iodide staining based flow cytometry (reference value: 35.3%); type: functional
HCT-116 [20] = experiment: Cell cycle arrest in human HCT-116 cells assessed as accumulation at G0/G1 phase at 5 times IC50 measured after 24 hrs by propidium iodide staining based flow cytometry (reference value: 35.3%); type: functional
HCT-116 [21] = experiment: Cell cycle arrest in human HCT-116 cells assessed as accumulation at S phase at IC50 measured after 24 hrs by propidium iodide staining based flow cytometry (reference value: 37.7%); type: functional
HCT-116 [22] = experiment: Cell cycle arrest in human HCT-116 cells assessed as accumulation at G2/M phase at IC50 measured after 24 hrs by propidium iodide staining based flow cytometry (reference value: 27.0%); type: functional
HCT-116 [23] = experiment: Cell cycle arrest in human HCT-116 cells assessed as phosphorylation of histone H3 at Ser10 at IC50 measured after 24 hrs by propidium iodide staining based flow cytometry (reference value: 3.4%); type: functional
HCT-116 [24] = experiment: Cell cycle arrest in human HCT-116 cells assessed as phosphorylation of histone H3 at Ser10 at 5 times IC50 measured after 24 hrs by propidium iodide staining based flow cytometry (reference value: 3.4%); type: functional
HCT-116 [25] = experiment: Cell cycle arrest in human HCT-116 cells assessed as BrdU incorporation at 5 times IC50 measured after 24 hrs by propidium iodide/immunostaining based flow cytometry (reference value: 48.6%); type: functional
HCT-116 [26] = experiment: Cell cycle arrest in human HCT-116 cells assessed as BrU incorporation at IC50 measured after 24 hrs by propidium iodide/immunostaining based flow cytometry (reference value: 54.0%); type: functional
HCT-116 [27] = experiment: Cell cycle arrest in human HCT-116 cells assessed as BrU incorporation at 5 times IC50 measured after 24 hrs by propidium iodide/immunostaining based flow cytometry (reference value: 54.0%); type: functional
CCRF-CEM [28] = experiment: Cell cycle arrest in human CCRF-CEM cells assessed as polyploid cell population at 2 times IC50 measured after 24 hrs by propidium iodide staining based flow cytometry (reference value: 11.3%); type: functional
CCRF-CEM [29] = experiment: Cell cycle arrest in human CCRF-CEM cells assessed as polyploid cell population at 2 times IC50 measured after 36 hrs by propidium iodide staining based flow cytometry (reference value: 11.3%); type: functional
CCRF-CEM [30] = experiment: Cell cycle arrest in human CCRF-CEM cells assessed as increase in phosphorylation of histone H3 at Ser10 at 2 times IC50 measured after 6 to 12 hrs by Western blot analysis; type: functional, cell-based; settings: time 6-12 hrs
CCRF-CEM [31] = experiment: Cell cycle arrest in human CCRF-CEM cells assessed as increase in cyclin B1 expression at 2 times IC50 measured after 6 to 12 hrs by Western blot analysis; type: functional, cell-based; settings: time 6-12 hrs
CCRF-CEM [32] = experiment: Cell cycle arrest in human CCRF-CEM cells assessed as increase in accumulation at G2/M phase at 2 times IC50 measured after 6 to 12 hrs by propidium iodide staining based flow cytometry; type: functional; settings: time 6-12 hrs
CCRF-CEM [33] = experiment: Cell cycle arrest in human CCRF-CEM cells assessed as increase in Bax expression at 2 times IC50 measured after 24 hrs by Western blot analysis; type: functional, cell-based
CCRF-CEM [34] = experiment: Cell cycle arrest in human CCRF-CEM cells assessed as decrease in Bcl2 expression at 2 times IC50 measured after 24 hrs by Western blot analysis; type: functional, cell-based
Tubulin (Homo sapiens) = Tubulin (Homo sapiens) (UniProt P68371+Q9H4B7+P0DPH7+P68366+Q13509+Q71U36+P04350+Q3ZCM7+P07437+P68363+Q9BQE3+Q6PEY2+Q13885+Q9BVA1+Q9BUF5); experiment: Induction of microtubule depolymerization in human HCT-116 cells assessed as appearance of abnormal mitotic spindle morphology at 5 times IC50 after 24 hrs by DAPI staining based immunofluorescence analysis; type: cell-based

Question: How did the IC50 (CCRF-CEM [1]) turn out when `O=c1c(O)c(-c2ccccc2)[nH]c2cc(F)c(Sc3ccccc3)cc12` was run?
Answer: 3.3 µM

Question: What about the IC50 (CCRF-CEM [2]) of the same compound?
Answer: 3.7 µM

Question: And the IC50 (K562 [3])?
Answer: 1.3 µM

Question: What about the IC50 (K562 [4]) of the same compound?
Answer: 2.9 µM

Question: What about the IC50 (HCT-116 [5]) of the same compound?
Answer: 1.3 µM

Question: And the IC50 (HCT-116 [6])?
Answer: 4 µM

Question: And the IC50 (A549)?
Answer: 3.6 µM

Question: And the Activity (CCRF-CEM [7])?
Answer: 1.8%

Question: What about the Activity (CCRF-CEM [8]) of the same compound?
Answer: 58.2%

Question: And the Activity (CCRF-CEM [9])?
Answer: 56.7%

Question: What about the Activity (CCRF-CEM [10]) of the same compound?
Answer: 21.6%

Question: And the Activity (CCRF-CEM [11])?
Answer: 41.5%

Question: And the Activity (CCRF-CEM [12])?
Answer: 4.9%

Question: And the Activity (CCRF-CEM [13])?
Answer: 74.2%

Question: What about the Activity (CCRF-CEM [14]) of the same compound?
Answer: 18.7%

Question: What about the Activity (CCRF-CEM [15]) of the same compound?
Answer: 67.4%

Question: What about the Activity (CCRF-CEM [16]) of the same compound?
Answer: 11.4%

Question: What about the Activity (HCT-116 [17]) of the same compound?
Answer: 3.4%

Question: What about the Activity (HCT-116 [18]) of the same compound?
Answer: 8.2%

Question: And the Activity (HCT-116 [19])?
Answer: 33.3%

Question: And the Activity (HCT-116 [20])?
Answer: 2.7%

Question: What about the Activity (HCT-116 [21]) of the same compound?
Answer: 33.5%

Question: What about the Activity (HCT-116 [22]) of the same compound?
Answer: 33.2%

Question: And the Activity (HCT-116 [23])?
Answer: 6.2%

Question: And the Activity (HCT-116 [24])?
Answer: 15.5%

Question: What about the Activity (HCT-116 [25]) of the same compound?
Answer: 41.6%

Question: And the Activity (HCT-116 [26])?
Answer: 65.4%

Question: And the Activity (HCT-116 [27])?
Answer: 63.9%

Question: What about the Activity (CCRF-CEM [28]) of the same compound?
Answer: 16.6%

Question: What about the Activity (CCRF-CEM [29]) of the same compound?
Answer: 20.8%

Question: What about the Activity (CCRF-CEM [30]) of the same compound?
Answer: Active

Question: What about the Activity (CCRF-CEM [31]) of the same compound?
Answer: Active

Question: And the Activity (CCRF-CEM [32])?
Answer: Active

Question: What about the Activity (CCRF-CEM [33]) of the same compound?
Answer: Active

Question: What about the Activity (CCRF-CEM [34]) of the same compound?
Answer: inactive

Question: What about the Activity (Tubulin (Homo sapiens)) of the same compound?
Answer: Active
